These results are taken from paper doi:10.1101/2024.05.30.596624v1 (biorxiv, 2024).

The nature of data set [1]: in vitro. Particulars: human, hepatocytes.
The nature of data set [2]: physchem. Particulars: 1-octanol/phosphate buffer, pH 7.4.
Another data set deals with AMPK α1β2γ1 (Homo sapiens, UniProt O43741+Q13131). Briefly: Caliper mobility shift kinase assay, FAM-SAMS peptide. Format: biochemical.
For a further data set, the system named is HepG2. The data set is described as follows: cells. Particulars: Homo sapiens, HepG2, read-out: Hu HepG2 EC50.
In another data set the target is AMPK α1β1γ1 (Homo sapiens, UniProt Q13131+Q9Y478). Briefly: Caliper mobility shift kinase assay, FAM-SAMS peptide. Format: biochemical.
AMPK α1β1γ1, sequence (Q13131 whole entry): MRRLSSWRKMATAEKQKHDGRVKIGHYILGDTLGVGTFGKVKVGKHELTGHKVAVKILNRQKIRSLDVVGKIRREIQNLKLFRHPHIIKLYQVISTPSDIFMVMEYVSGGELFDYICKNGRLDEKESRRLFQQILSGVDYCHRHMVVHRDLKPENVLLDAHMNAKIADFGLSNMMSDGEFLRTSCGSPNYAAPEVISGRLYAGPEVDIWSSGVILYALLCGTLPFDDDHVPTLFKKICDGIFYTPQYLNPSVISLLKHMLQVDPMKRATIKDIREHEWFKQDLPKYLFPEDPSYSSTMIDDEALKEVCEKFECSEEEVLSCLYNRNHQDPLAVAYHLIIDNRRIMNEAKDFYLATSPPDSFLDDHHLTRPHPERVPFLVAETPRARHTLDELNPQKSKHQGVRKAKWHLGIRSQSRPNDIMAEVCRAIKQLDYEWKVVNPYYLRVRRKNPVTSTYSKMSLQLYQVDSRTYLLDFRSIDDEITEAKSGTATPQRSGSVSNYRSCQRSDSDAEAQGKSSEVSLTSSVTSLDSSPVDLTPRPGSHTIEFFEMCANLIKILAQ
AMPK α1β1γ1, sequence (Q9Y478 2-270): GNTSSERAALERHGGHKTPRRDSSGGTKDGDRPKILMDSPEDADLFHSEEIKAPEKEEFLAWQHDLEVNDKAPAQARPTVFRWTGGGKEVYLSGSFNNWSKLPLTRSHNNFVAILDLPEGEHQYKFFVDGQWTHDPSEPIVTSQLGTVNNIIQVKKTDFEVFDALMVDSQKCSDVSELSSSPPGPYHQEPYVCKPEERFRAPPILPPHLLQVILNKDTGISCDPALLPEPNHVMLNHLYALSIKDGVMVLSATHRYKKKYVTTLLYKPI
AMPK α1β1γ1, sequence (P54619 whole entry partner): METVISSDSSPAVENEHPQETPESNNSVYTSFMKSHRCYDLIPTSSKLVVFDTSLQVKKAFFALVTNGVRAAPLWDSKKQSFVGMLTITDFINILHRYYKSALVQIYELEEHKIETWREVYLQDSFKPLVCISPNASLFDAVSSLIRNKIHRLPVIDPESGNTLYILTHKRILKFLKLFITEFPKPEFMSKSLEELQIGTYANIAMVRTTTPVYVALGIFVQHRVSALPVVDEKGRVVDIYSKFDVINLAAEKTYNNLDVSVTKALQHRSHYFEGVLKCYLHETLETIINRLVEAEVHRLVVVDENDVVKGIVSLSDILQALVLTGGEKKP
The nature of data set [3]: in vitro. Particulars: human, Caco-2.
Data set [4] can be described thus: in vitro. Particulars: human, plasma.
The nature of data set [5]: in vitro. Particulars: rat, hepatocytes.
Data set [6] is described as follows: in vitro. Particulars: mouse, hepatocytes.
The nature of data set [7]: in vitro. Particulars: human, liver microsomes.
Data set [8] can be described thus: physchem. Particulars: aqueous phosphate buffer, pH 7.4, aqueous buffer.

≈ marks a conversion by molar mass, not a printed value.

AMPK α1β2γ1, sequence (Q13131 whole entry): as the sequence (Q13131 whole entry) above
AMPK α1β2γ1, sequence (O43741 whole entry): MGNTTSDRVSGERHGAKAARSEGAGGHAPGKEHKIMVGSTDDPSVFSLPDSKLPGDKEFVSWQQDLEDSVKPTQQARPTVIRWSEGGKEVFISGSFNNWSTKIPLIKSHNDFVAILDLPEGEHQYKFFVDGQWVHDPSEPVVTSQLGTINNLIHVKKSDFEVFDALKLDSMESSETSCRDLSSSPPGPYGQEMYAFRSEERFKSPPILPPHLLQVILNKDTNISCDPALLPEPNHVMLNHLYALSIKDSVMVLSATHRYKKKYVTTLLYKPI
AMPK α1β2γ1, sequence (P54619 whole entry partner): as the sequence (P54619 whole entry partner) above

For orientation: hepatocyte CLint means a measure of how fast metabolising enzymes remove a compound, apart from limits set by blood flow. A word on the logD: it is lipophilicity at a set pH, counting ionised and neutral species. A high value points to higher lipophilicity. The term EC50 denotes the concentration that produces a half-maximal response. What is called Papp is a coefficient for how fast a substance crosses the barrier. The fraction unbound is the share of the substance not bound to proteins or other matrix. Higher therefore signals weak binding. As usually defined, the microsomal CLint is the rate of metabolic loss divided by the concentration. What is called solubility is the dissolved amount per volume that the medium holds. On to `CS(C)(=O)=Nc1ccc(-c2ccc(-c3nc4[nH]c(O[C@@H]5CO[C@H]6[C@@H]5OC[C@H]6O)nc4cc3Cl)cc2)cc1` [BI9774], for which the hepatocyte CLint in the data set “in vitro [1]” is below 1 µL/min/1e6 cells; in the data set “in vitro [5]”, below 1.4 µL/min/1e6 cells; in the data set “in vitro [6]”, 8.6 µL/min/1e6 cells. The compound also yielded a logD in the data set “physchem [2]” of 2.8. The EC50 came out at 63.1 ± 14.7 nM on AMPK α1β2γ1, 83.2 nM in the data set with HepG2 and 20 ± 9.5 nM on AMPK α1β1γ1. Further, in the data set “in vitro [3]”, the Papp was 26 ×10⁻⁶ cm/s. Moreover, in “in vitro [4]”, the unbound share (fraction unbound) came out at 0.037. In the data set “in vitro [7]”, this compound registered a microsomal CLint below 3 µL/min/mg. In addition, the solubility at 27 h in “physchem [8]” is 8 µM (≈ 4.33 µg/mL).
